The source of these data is patent publication US9023789B2, “Amylin analogs and pharmaceutical compositions thereof” (Novo Nordisk A/S, priority 2012, dated 2015).

In brackets after ≈: the same amount, converted by molar mass. Read-outs that look alike come from different tables or passages of the source. Numbered stars: 1 amine (or outer) side, 2 acyl side, 3 side chain; on linkers, the order of the positions; unused ones are H or OH. Bridge positions count the residues as written; N and C are the ends. Side chains are listed from the residue outwards. Peptide text beside a SMILES is read from it. * marks the point of attachment. C20 diacid = O=C(O)CCCCCCCCCCCCCCCCCCC(=O)*; γGlu = O=C(O)[C@H](CCC(=O)[*:2])N[*:1]

A short description of data set [1]: ASSAY (III) ThT fibrillation assay for physical stability. The format is physicochemical. An outline of the steps:
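Formulations with 1 μM ThT, pH adjusted as required, incubated at 37 °C with 960 rpm orbital shaking; fluorescence (ex 444/em 485 nm) read every 20 min. Fibrillation reported as mean ThT fluorescence ± SD of 4–8 replicates at time points; polypeptide concentration measured by reverse-phase HPLC before and after, post-centrifugation.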

A short description of data set [2]: ASSAY (IV) determination of solubility. The format is physicochemical. An outline of the steps:
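Dissolve polypeptide in water ([…] stock); combine 1:1 with each 100 mM buffer (glycylglycine pH 3.0/4.0/5.0; bistrispropane pH 6.0/6.5/7.0/7.5/8.0); hold 18 hours at room temperature; centrifuge; quantify polypeptide by UPLC.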

Where [3] appears, read: bistrispropane buffer, pH 6.5, read-out: Solubility pH 6.5 Concentration.
Setting [4] is: bistrispropane buffer, pH 7.5, read-out: Solubility pH 7.5 Concentration.
Where [5] appears, read: bistrispropane buffer, pH 6.0, read-out: Solubility pH 6.0 Concentration.
The mark [6] stands for this setting: bistrispropane buffer, pH 7.0, read-out: Solubility pH 7.0 Concentration.
[7] abbreviates: bistrispropane buffer, pH 8.0, read-out: Solubility pH 8.0 Concentration.
The mark [8] stands for this setting: glycylglycine buffer, pH 3.0, read-out: Solubility pH 3.0 Concentration.
The mark [9] stands for this setting: glycylglycine buffer, pH 4.0, read-out: Solubility pH 4.0 Concentration.
[10] abbreviates: glycylglycine buffer, pH 5.0, read-out: Solubility pH 5.0 Concentration.

Regarding `CC[C@H](C)[C@H](NC(=O)[C@H](C)NC(=O)CNC(=O)[C@H](Cc1ccccc1)NC(=O)[C@H](CC(N)=O)NC(=O)[C@@H]1CCCN1C(=O)[C@H](CO)NC(=O)[C@H](CO)NC(=O)[C@H](Cc1c[nH]cn1)NC(=O)[C@H](CCCNC(=N)N)NC(=O)[C@H](CC(C)C)NC(=O)[C@H](Cc1ccccc1)NC(=O)[C@H](CC(N)=O)NC(=O)[C@H](C)NC(=O)[C@H](CC(C)C)NC(=O)[C@H](CCCNC(=N)N)NC(=O)[C@H](CCC(N)=O)NC(=O)[C@@H](NC(=O)[C@H](C)NC(=O)[C@@H]1CSSC[C@H](NC(=O)[C@@H](N)CCCCNC(=O)CC[C@H](NC(=O)CC[C@H](NC(=O)CCCCCCCCCCCCCCCCCCC(=O)O)C(=O)O)C(=O)O)C(=O)N[C@@H](CC(N)=O)C(=O)N[C@@H]([C@@H](C)O)C(=O)N[C@@H](C)C(=O)N[C@@H]([C@@H](C)O)C(=O)N1)[C@@H](C)O)C(=O)N1CCC[C@H]1C(=O)N[C@@H](CO)C(=O)N[C@@H](CO)C(=O)N[C@H](C(=O)N1CCC[C@H]1C(=O)N[C@H](C(=O)NCC(=O)N1CCC[C@H]1C(=O)N[C@@H](CCCNC(=N)N)C(=O)N[C@H](C(=O)N[C@@H](Cc1ccc(O)cc1)C(N)=O)[C@@H](C)O)C(C)C)[C@@H](C)O` [Example 119] (H-K([γGlu-γGlu-C20 diacid])CNTATCATQRLANFLRHSSPNFGAIPSSTPVGPRTY-NH2; disulfide 2-7), in data set [1], the “ThT pH 4.0 lag time (h)” value worked out at 10 h. For the same compound, the solubility at 18 h in data set [2] (setting [3]) was 174 µM (≈ 791 µg/mL); in data set [2] (setting [4]), 112 µM (≈ 509 µg/mL); in data set [2] (setting [5]), at least 200 µM; in data set [2] (setting [6]) it was 182 µM (≈ 827 µg/mL); in data set [2] (setting [7]) it was 32 µM (≈ 145 µg/mL); in data set [2] (setting [8]) it was 174 µM (≈ 791 µg/mL). Further, the solubility at 18 h in data set [2] (setting [9]) and in data set [2] (setting [10]) was at least 200 µM each time.
Turning to `CC[C@H](C)[C@H](NC(=O)[C@H](C)NC(=O)CNC(=O)[C@H](Cc1ccccc1)NC(=O)[C@H](CC(N)=O)NC(=O)[C@@H]1CCCN1C(=O)[C@H](CO)NC(=O)[C@H](CO)NC(=O)[C@H](Cc1c[nH]cn1)NC(=O)[C@H](CCCNC(=N)N)NC(=O)[C@H](CC(C)C)NC(=O)[C@H](Cc1ccccc1)NC(=O)[C@H](CCC(=O)O)NC(=O)[C@H](C)NC(=O)[C@H](CC(C)C)NC(=O)[C@H](CCCNC(=N)N)NC(=O)[C@H](CCC(N)=O)NC(=O)[C@@H](NC(=O)[C@H](C)NC(=O)[C@@H]1CSSC[C@H](NC(=O)[C@@H](N)CCCCNC(=O)CC[C@H](NC(=O)CC[C@H](NC(=O)CCCCCCCCCCCCCCCCCCC(=O)O)C(=O)O)C(=O)O)C(=O)N[C@@H](CC(N)=O)C(=O)N[C@@H]([C@@H](C)O)C(=O)N[C@@H](C)C(=O)N[C@@H]([C@@H](C)O)C(=O)N1)[C@@H](C)O)C(=O)N1CCC[C@H]1C(=O)N[C@@H](CO)C(=O)N[C@@H](CO)C(=O)N[C@H](C(=O)N[C@@H](CC(N)=O)C(=O)N[C@H](C(=O)NCC(=O)N[C@@H](CCCNC(=N)N)C(=O)N[C@@H](CCC(=O)O)C(=O)N[C@H](C(=O)N[C@@H](Cc1ccc(O)cc1)C(N)=O)[C@@H](C)O)C(C)C)[C@@H](C)O` [Example 105] (H-K([γGlu-γGlu-C20 diacid])CNTATCATQRLAEFLRHSSPNFGAIPSSTNVGRETY-NH2; disulfide 2-7; N-terminus assumed), in data set [1], the “ThT pH 4.0 lag time (h)” value was 45 h. Also, the solubility at 18 h in data set [2] (setting [3]), in data set [2] (setting [4]), in data set [2] (setting [5]), in data set [2] (setting [6]), in data set [2] (setting [7]) and in data set [2] (setting [8]) was at least 200 µM throughout. Besides, the solubility at 18 h in data set [2] (setting [9]) and in data set [2] (setting [10]) was at least 200 µM throughout.
For `CC[C@H](C)[C@H](NC(=O)[C@H](C)NC(=O)CNC(=O)[C@H](Cc1ccccc1)NC(=O)[C@H](CC(N)=O)NC(=O)[C@@H]1CCCN1C(=O)[C@H](CO)NC(=O)[C@H](CO)NC(=O)[C@H](Cc1c[nH]cn1)NC(=O)[C@H](CCCNC(=N)N)NC(=O)[C@H](CC(C)C)NC(=O)[C@H](Cc1ccccc1)NC(=O)[C@H](CCC(=O)O)NC(=O)[C@H](C)NC(=O)[C@H](CC(C)C)NC(=O)[C@H](CCCNC(=N)N)NC(=O)[C@H](CCC(N)=O)NC(=O)[C@@H](NC(=O)[C@H](C)NC(=O)[C@@H]1CSSC[C@H](NC(=O)[C@@H](N)CCCCNC(=O)CC[C@H](NC(=O)CC[C@H](NC(=O)CCCCCCCCCCCCCCCCCCC(=O)O)C(=O)O)C(=O)O)C(=O)N[C@@H](CC(N)=O)C(=O)N[C@@H]([C@@H](C)O)C(=O)N[C@@H](C)C(=O)N[C@@H]([C@@H](C)O)C(=O)N1)[C@@H](C)O)C(=O)N1CCC[C@H]1C(=O)N[C@@H](CO)C(=O)N[C@@H](CO)C(=O)N[C@H](C(=O)N[C@@H](CC(N)=O)C(=O)N[C@H](C(=O)NCC(=O)N1CCC[C@H]1C(=O)N[C@@H](CCC(=O)O)C(=O)N[C@H](C(=O)N1CCC[C@H]1C(N)=O)[C@@H](C)O)C(C)C)[C@@H](C)O` [Example 125] (H-K([γGlu-γGlu-C20 diacid])CNTATCATQRLAEFLRHSSPNFGAIPSSTNVGPETP-NH2; disulfide 2-7 (inferred); N-terminus assumed), the “ThT pH 4.0 lag time (h)” value in data set [1] is 23 h. Also, the solubility at 18 h in data set [2] (setting [3]), in data set [2] (setting [4]), in data set [2] (setting [5]), in data set [2] (setting [6]), in data set [2] (setting [7]) and in data set [2] (setting [8]) was at least 200 µM each time. For the same compound, the solubility at 18 h in data set [2] (setting [9]) and in data set [2] (setting [10]) was at least 200 µM in each case.
As to `CC[C@H](C)[C@H](NC(=O)[C@H](C)NC(=O)CNC(=O)[C@H](Cc1ccccc1)NC(=O)[C@H](CC(N)=O)NC(=O)[C@@H]1CCCN1C(=O)[C@H](CO)NC(=O)[C@H](CO)NC(=O)[C@H](Cc1c[nH]cn1)NC(=O)[C@H](CCCNC(=N)N)NC(=O)[C@H](CC(C)C)NC(=O)[C@H](Cc1ccccc1)NC(=O)[C@H](Cc1c[nH]cn1)NC(=O)[C@H](C)NC(=O)[C@H](CC(C)C)NC(=O)[C@H](CCCNC(=N)N)NC(=O)[C@H](CCC(N)=O)NC(=O)[C@@H](NC(=O)[C@H](C)NC(=O)[C@@H]1CSSC[C@H](NC(=O)[C@@H](N)CCCCNC(=O)CC[C@H](NC(=O)CCCCCCCCCCCCCCCCCCC(=O)O)C(=O)O)C(=O)N[C@@H](CC(N)=O)C(=O)N[C@@H]([C@@H](C)O)C(=O)N[C@@H](C)C(=O)N[C@@H]([C@@H](C)O)C(=O)N1)[C@@H](C)O)C(=O)N1CCC[C@H]1C(=O)N[C@@H](CO)C(=O)N[C@@H](CO)C(=O)N[C@H](C(=O)N1CCC[C@H]1C(=O)N[C@H](C(=O)NCC(=O)N1CCC[C@H]1C(=O)N[C@@H](CC(N)=O)C(=O)N[C@H](C(=O)N[C@@H](Cc1ccc(O)cc1)C(N)=O)[C@@H](C)O)C(C)C)[C@@H](C)O` [Example 116] (H-K([γGlu-C20 diacid])CNTATCATQRLAHFLRHSSPNFGAIPSSTPVGPNTY-NH2; disulfide 2-7), in data set [1], the “ThT pH 4.0 lag time (h)” value is given as 45 h. Also, the solubility at 18 h is at least 200 µM in data set [2] (setting [3]); at least 200 µM in data set [2] (setting [4]); at least 200 µM in data set [2] (setting [5]); at least 200 µM in data set [2] (setting [6]); 180 µM (≈ 791 µg/mL) in data set [2] (setting [7]); at least 200 µM in data set [2] (setting [8]). Besides, the solubility at 18 h in data set [2] (setting [9]) and in data set [2] (setting [10]) was at least 200 µM each time.
As for `CC[C@H](C)[C@H](NC(=O)[C@H](C)NC(=O)CNC(=O)[C@H](Cc1ccccc1)NC(=O)[C@H](CC(N)=O)NC(=O)[C@@H]1CCCN1C(=O)[C@H](CO)NC(=O)[C@H](CO)NC(=O)[C@H](Cc1c[nH]cn1)NC(=O)[C@H](CCCNC(=N)N)NC(=O)[C@H](CC(C)C)NC(=O)[C@H](Cc1ccccc1)NC(=O)[C@H](C)NC(=O)[C@H](C)NC(=O)[C@H](CC(C)C)NC(=O)[C@H](CCCNC(=N)N)NC(=O)[C@H](CCC(N)=O)NC(=O)[C@@H](NC(=O)[C@H](C)NC(=O)[C@@H]1CSSC[C@H](NC(=O)[C@H](CCCNC(=N)N)NC(=O)CNC(=O)CC[C@H](NC(=O)CCCCCCCCCCCCCCCCCCC(=O)O)C(=O)O)C(=O)N[C@@H](CC(N)=O)C(=O)N[C@@H]([C@@H](C)O)C(=O)N[C@@H](C)C(=O)N[C@@H]([C@@H](C)O)C(=O)N1)[C@@H](C)O)C(=O)N1CCC[C@H]1C(=O)N[C@@H](CO)C(=O)N[C@@H](CO)C(=O)N[C@H](C(=O)N[C@@H](CC(N)=O)C(=O)N[C@H](C(=O)NCC(=O)N[C@@H](Cc1c[nH]cn1)C(=O)N[C@@H](CC(N)=O)C(=O)N[C@H](C(=O)N[C@@H](Cc1ccc(O)cc1)C(N)=O)[C@@H](C)O)C(C)C)[C@@H](C)O` [Example 101] ({C20 diacid-γGlu}-GRCNTATCATQRLAAFLRHSSPNFGAIPSSTNVGHNTY-NH2; disulfide 3-8), in data set [1], the “ThT pH 4.0 lag time (h)” value is 45 h. Moreover, the solubility at 18 h in data set [2] (setting [3]) was at least 200 µM; in data set [2] (setting [4]), 69 µM (≈ 309 µg/mL); in data set [2] (setting [5]), at least 200 µM; in data set [2] (setting [6]) it was 182 µM (≈ 814 µg/mL); in data set [2] (setting [7]), 83 µM (≈ 371 µg/mL); in data set [2] (setting [8]), at least 200 µM. Besides, the solubility at 18 h in data set [2] (setting [9]) and in data set [2] (setting [10]) was at least 200 µM each time.
